From US10174016B2 (BAYER AKTIENGESELLSCHAFT, priority 2014, dated 2019)

Columns and labels:
human P2X2/3 receptor = human P2X2/3 receptor (Homo sapiens (Human), UniProt P56373+Q9UBL9); experiment: Intracellular calcium measurement (FLIPR, Fluo-4) of antagonist activity at human P2X2/3 receptors; assay type: cell-based; settings: human P2X2/3, FLIPR calcium assay, agonist α,β-Me-ATP; read-out: hP2X2/3 IC50
Method in brief: (§1)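 Cells expressing human P2X3 or P2X2/3, loaded with Fluo-4, preincubated 30 min at 37° C. with compound (1% DMSO final), then challenged with α,β-Me-ATP at its EC80. Peak FLIPR fluorescence over 90 sec gave % response; IC50, maximal inhibition and Hill slope from triplicates.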

human P2X3 receptor = human P2X3 receptor (Homo sapiens (Human), UniProt P56373); experiment: Intracellular calcium measurement (FLIPR, Fluo-4) of antagonist activity at human P2X3 receptors; assay type: cell-based; settings: human P2X3, FLIPR calcium assay, agonist α,β-Me-ATP; read-out: hP2X3 IC50
Method in brief: as §1

human P2X3 receptor, sequence (P56373 whole entry): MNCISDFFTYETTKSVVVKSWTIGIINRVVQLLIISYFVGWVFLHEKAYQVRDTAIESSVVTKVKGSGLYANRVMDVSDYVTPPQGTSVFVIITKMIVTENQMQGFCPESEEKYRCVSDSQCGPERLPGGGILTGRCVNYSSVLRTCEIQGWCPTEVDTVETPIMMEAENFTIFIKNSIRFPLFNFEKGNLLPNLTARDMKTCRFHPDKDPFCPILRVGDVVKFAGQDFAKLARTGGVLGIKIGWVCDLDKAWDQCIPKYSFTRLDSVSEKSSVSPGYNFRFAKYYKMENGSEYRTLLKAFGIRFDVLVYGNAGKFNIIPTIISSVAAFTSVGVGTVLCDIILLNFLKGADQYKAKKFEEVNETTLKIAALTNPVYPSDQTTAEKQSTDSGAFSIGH
human P2X2/3 receptor, sequence (P56373 whole entry): as above
human P2X2/3 receptor, sequence (Q9UBL9 whole entry): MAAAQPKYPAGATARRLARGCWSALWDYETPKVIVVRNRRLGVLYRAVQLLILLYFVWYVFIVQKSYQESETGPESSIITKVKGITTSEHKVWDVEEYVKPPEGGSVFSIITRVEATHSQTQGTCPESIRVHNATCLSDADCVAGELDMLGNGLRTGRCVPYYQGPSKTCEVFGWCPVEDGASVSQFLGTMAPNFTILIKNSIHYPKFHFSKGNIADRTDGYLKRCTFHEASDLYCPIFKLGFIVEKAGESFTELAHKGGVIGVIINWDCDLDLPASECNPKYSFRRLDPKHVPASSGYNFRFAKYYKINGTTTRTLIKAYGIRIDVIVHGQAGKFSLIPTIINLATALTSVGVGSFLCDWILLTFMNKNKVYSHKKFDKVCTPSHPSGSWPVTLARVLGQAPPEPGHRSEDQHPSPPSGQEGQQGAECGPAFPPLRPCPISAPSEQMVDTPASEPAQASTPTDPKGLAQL

Row | SMILES | IC50 (human P2X2/3 receptor) | IC50 (human P2X3 receptor)
1 | Cc1cnc(-c2cc(OC[C@@H]3CN(C)CCO3)cc(C(=O)NCc3cnc(C(F)(F)F)nc3)c2)s1 [Example 368, 3-{[(2S)-4-methylmorpholin-2-yl]methoxy}-5-(5-methyl-1,3-thiazol-2-yl)-N-{[2-(trifluoromethyl)pyrimidin-5-yl]methyl}benzamide] | 1090 nM | 84 nM
2 | Cc1cnc(-c2cc(OC[C@H]3CN(C)CCO3)cc(C(=O)N[C@H](C)c3ccc(C(F)F)nc3)c2)s1 [Example 369, N-{(1R)-1-[6-(difluoromethyl)pyridin-3-yl]ethyl}-3-{[(2R)-4-methylmorpholin-2-yl]methoxy}-5-(5-methyl-1,3-thiazol-2-yl)benzamide] | 328 nM | 11 nM
3 | Cc1cnc(-c2cc(OC[C@@H]3CN(C)CCO3)cc(C(=O)N[C@H](C)c3ccc(C(F)(F)F)nc3)c2)s1 [Example 370, 3-{[(2S)-4-methylmorpholin 2-yl]methoxy}-5-(5-methyl-1,3-thiazol-2-yl)-N-{(1R)-1-[6-(trifluoromethyl)pyridin-3-yl]ethyl}benzamide] | 1010 nM | 41 nM
4 | Cc1cnc(-c2cc(OCC3(F)CN(C)C3)cc(C(=O)N[C@H](C)c3cnc(C(F)(F)F)nc3)c2)s1 [Example 371, 3-[(3-fluoro-1-methylazetidin-3-yl}methoxy]-5-(5-methyl-1,3-thiazol-2-yl)-N-{(1R)-1-[2-(trifluoromethyl)pyrimidin-5-yl]ethyl}benzamide] | 1170 nM | 24 nM
5 | Cc1cnc(-c2cc(OC[C@H]3CN(C)CCO3)cc(C(=O)NCc3cnc(C(F)(F)F)nc3)c2)s1 [Example 372, 3-{[(2R)-4-methylmorpholin-2-yl]methoxy}-5-(5-methyl-1,3-thiazol-2-yl)-N-{[2-(trifluoromethyl)pyrimidin-5-yl]methyl}benzamide] | 1210 nM | 19 nM
6 | Cc1cnc(-c2cc(OC[C@H]3CN(C)CCO3)cc(C(=O)N[C@H](C)c3ccc(C(F)(F)F)nn3)c2)s1 [Example 373, 3-{[(2R)-4-methylmorpholin-2-yl]methoxy}-5-(5-methyl-1,3-thiazol-2-yl)-N-{(1R)-1-[6-(trifluoromethyl)pyridazin-3-yl]ethyl}benzamide] | 2830 nM | 21 nM
7 | Cc1cnc(-c2cc(OC[C@@H]3CN(C)CCO3)cc(C(=O)N[C@H](C)c3ccc(C(F)(F)F)nn3)c2)s1 [Example 374, 3-{[(2S)-4-methylmorpholin-2-yl]methoxy}-5-(5-methyl-1,3-thiazol-2-yl)-N-{(1R)-1-[6-(trifluoromethyl)pyridazin-3-yl]ethyl}benzamide] | 2560 nM | 55 nM
8 | CCc1cnc(-c2cc(OC[C@@H]3CN(C)CCO3)cc(C(=O)N[C@H](C)c3cnc(C(F)(F)F)nc3)c2)s1 [Example 375, 3-(5-ethyl-1,3-thiazol-2-yl)-5-{[(2S)-4-methylmorpholin-2-yl]methoxy}-N-{(1R)-1-[2-(trifluoromethyl)pyrimidin-5-yl]ethyl}benzamide] | 185 nM | 11 nM
9 | C[C@@H](NC(=O)c1cc(OC[C@@H]2CN(C)CCO2)cc(-c2ncc(Cl)s2)c1)c1cnc(C(F)(F)F)nc1 [Example 376, 3-(5-chloro-1,3-thiazol-2-yl)-5-{[(2S)-4-methylmorpholin-2-yl]methoxy}-N-{(1R)-1-[2-(trifluoromethyl)pyrimidin-5-yl]ethyl}benzamide] | 898 nM | 32 nM
10 | CCc1cnc(-c2cc(OC[C@H]3CN(C)CCO3)cc(C(=O)N[C@H](C)c3cnc(C(F)(F)F)nc3)c2)s1 [Example 377, 3-(5-ethyl-1,3-thiazol-2-yl)-5-{[(2R)-4-methylmorpholin-2-yl]methoxy}-N-{(1R)-1-[2-(trifluoromethyl)pyrimidin-5-yl]ethyl}benzamide] | 273 nM | 5 nM
11 | Cc1cnc(-c2cc(OC[C@@H]3CCCN3C)cc(C(=O)N[C@H](C)c3cnc(C(F)(F)F)nc3)c2)s1 [Example 378, 3-{[(2S)-1-methylpyrrolidin-2-yl]methoxy}-5-(5-methyl-1,3-thiazol-2-yl)-N-{(1R)-1-[2-(trifluoromethyl)pyrimidin-5-yl]ethyl}benzamide] | 3750 nM | 60 nM
12 | Cc1cnc(-c2cc(OC[C@H]3CCCN3C)cc(C(=O)N[C@H](C)c3cnc(C(F)(F)F)nc3)c2)s1 [Example 379, 3-{[(2R)-1-methylpyrrolidin-2-yl]methoxy}-5 (5-methyl-1,3-thiazol-2-yl)-N-{(1R)-1-[2-(trifluoromethyl)pyrimidin-5-yl]ethyl}benzamide] | 2750 nM | 42 nM
13 | Cc1cnc(-c2cc(OCC3CCN(C)CC3)cc(C(=O)N[C@H](C)c3cnc(C(F)(F)F)nc3)c2)s1 [Example 380, 3-[(1-methylpiperidin-4-yl)methoxy]-5-(5-methyl-1,3-thiazol-2-yl)-N-{(1R)-1-[2-(trifluoromethyl)pyrimidin-5-yl]ethyl}benzamide] | 2880 nM | 32 nM
14 | Cc1cnc(-c2cc(OC[C@H]3CN(C(C)C)CCO3)cc(C(=O)N[C@H](C)c3cnc(C(F)(F)F)nc3)c2)s1 [Example 381, 3-(5-methyl-1,3-thiazol-2-yl)-5-{[(2R)-4-(propan-2-yl)morpholin-2-yl]methoxy}-N-{(1R)-1-[2-(trifluoromethyl)pyrimidin-5-yl]ethyl}benzamide] | 954 nM | 16 nM
15 | Cc1cnc(-c2cc(OCC3(F)CN(C)C3)cc(C(=O)N[C@H](C)c3ccc(C(F)(F)F)nc3)c2)s1 [Example 386, 3-[(3-fluoro-1-methylazetidin-3-yl)methoxy]-5-(5-methyl-1,3-thiazol-2-yl)-N-{(1R)-1-[6-(trifluoromethyl)pyridin-3-yl]ethyl}benzamide] | 811 nM | 24 nM
16 | CCc1cnc(-c2cc(OCC3(F)CN(C)C3)cc(C(=O)N[C@H](C)c3ccc(C(F)(F)F)nc3)c2)s1 [Example 387, 3-(5-ethyl-1,3-thiazol-2-yl)-5-[(3-fluoro-1-methylazetidin-3-yl)methoxy]-N-{(1R)-1-[6-(trifluoromethyl)pyridin-3-yl]ethyl}benzamide] | 461 nM | 19 nM
17 | Cc1cnc(-c2cc(OC[C@H]3COCCN3C)cc(C(=O)N[C@H](C)c3ccc(C(F)(F)F)nn3)c2)s1 [Example 388, 3-{[(3R)-4-methylmorpholin-3-yl]methoxy}-5-(5-methyl-1,3-thiazol-2-yl)-N-{(1R)-1-[6-(trifluoromethyl)pyridazin-3-yl]ethyl}benzamide] | 1350 nM | 18 nM
18 | Cc1cnc(-c2cc(OC[C@@H]3COCCN3C)cc(C(=O)N[C@H](C)c3ccc(C(F)(F)F)nn3)c2)s1 [Example 389, 3-{[(3S)-4-methylmorpholin-3-yl]methoxy}-5-(5-methyl-1,3-thiazol-2-yl)-N-{(1R)-1-[6-(trifluoromethyl)pyridazin-3-yl]ethyl}benzamide] | 1610 nM | 18 nM
19 | CCN1CCO[C@@H](COc2cc(C(=O)N[C@H](C)c3cnc(C(F)(F)F)nc3)cc(-c3ncc(C)s3)c2)C1 [Example 390, 3-{[(2R)-4-ethylmorpholin-2-yl]methoxy}-5-(5-methyl-1,3-thiazol-2-yl)-N-{(1R)-1-[2-(trifluoromethyl)pyrimidin-5-yl]ethyl}benzamide] | 804 nM | 17 nM
20 | Cc1cnc(-c2cc(OC[C@H]3CN(CC(F)F)CCO3)cc(C(=O)N[C@H](C)c3cnc(C(F)(F)F)nc3)c2)s1 [Example 391, 3-{[(2R)-4-(2,2-difluoroethyl)morpholin-2-yl]methoxy}-5-(5-methyl-1,3-thiazol-2-yl)-N-{(1R)-1-[2-(trifluoromethyl)pyrimidin-5-yl]ethyl}benzamide] | 840 nM | 19 nM
21 | COC(=O)N1CCO[C@@H](COc2cc(C(=O)N[C@H](C)c3cnc(C(F)(F)F)nc3)cc(-c3ncc(C)s3)c2)C1 [Example 392, Methyl (2R)-2-{[3-(5-methyl-1,3-thiazol-2-yl)-5-({(1R)-1-[2-(trifluoromethyl)pyrimidin-5-yl]ethyl}carbamoyl)phenoxy]methyl}morpholine-4-carboxylate] | 411 nM | 11 nM
22 | COC(=O)N1CCO[C@H](COc2cc(C(=O)N[C@H](C)c3cnc(C(F)(F)F)nc3)cc(-c3ncc(C)s3)c2)C1 [Example 393, methyl (2S)-2-{[3-(5-methyl-1,3-thiazol-2-yl)-5-({(1R)-1-[2-(trifluoromethyl)pyrimidin-5-yl]ethyl}carbamoyl)phenoxy]methyl}morpholine-4-carboxylate] | 1030 nM | 24 nM
23 | Cc1cnc(-c2cc(OCC3CNC3)cc(C(=O)N[C@H](C)c3cnc(C(F)(F)F)nc3)c2)s1 [Example 394, 3-(Azetidin-3-ylmethoxy)-5-(5-methyl-1,3-thiazol-2-yl)-N-{(1R)-1-[2-(trifluoromethyl)pyrimidin-5-yl]ethyl}benzamide] | 3980 nM | 82 nM
24 | Cc1cnc(-c2cc(OC[C@H]3COCC(=O)N3C)cc(C(=O)N[C@H](C)c3cnc(C(F)(F)F)nc3)c2)s1 [Example 395, 3-{[(3R)-4-methyl-5-oxomorpholin-3-yl]methoxyl}-5-(5-methyl-1,3-thiazol-2-yl)-N-{(1R)-1-[2-(trifluoromethyl)pyrimidin-5-yl]ethyl}benzamide] | 1310 nM | 30 nM
25 | Cc1cnc(-c2cc(OC[C@H]3COCC(=O)N3)cc(C(=O)N[C@H](C)c3cnc(C(F)(F)F)nc3)c2)s1 [Example 396, 3-(5-methyl-1,3-thiazol-2-yl)-5-{[(3R)-5-oxomorpholin-3-yl]methoxy}-N-{(1R)-1-[2-(trifluoromethyl)pyrimidin-5-yl]ethyl}benzamide] | 1800 nM | 22 nM
